From article PMC12356897 (Nature Communications, 2025)

Tests used:
[1] = tested on: 11 human cyclins (D1/2/3, E1/2, A1/2, B1/2/3 and F); assay: SIMBA, cyclin binding and specificity across the cyclin panel; format: cell-based; details: result in words; for cyclin specificity in SIMBA: 13-mer peptides centered on P0; for cyclin binding in the tiled library SIMBA screen: tiled 16-mer peptides
human cyclin B1 = assay: Proteomic peptide phage display; format: binding; details: result in words; HD2 library of 16-mer peptides, four selection rounds
human cyclin A2 = assay: Proteomic peptide phage display; format: binding; details: result in words; HD2 library of 16-mer peptides, four selection rounds

| Sequence | cyclin specificity in SIMBA [1] | also measured |
| --- | --- | --- |
| QLRRQLSFSED [MICAL3] | – | cyclin binding in the tiled library SIMBA screen [1]: strong B1-binding motif |
| SKACRRLFGPVDS [CDKN1A (p21)] | bound all cyclin types except B | – |
| SLVVGKLSFDSSP [CDC42EP1] | bound cyclin B1 specifically | – |
| SNARRSLNFGGST [SCAPER] | bound preferentially to cyclin A2 | – |
| VKTKKRLNFDDKV [CENPC] | bound preferentially to cyclin A2 | – |
| VSAVQKLDFSDTMVQQ [PKN2 peptide] | – | enrichment in ProP-PD selection, cyclin B1 (human cyclin B1): dominated; enrichment in ProP-PD selection, cyclin A2 (human cyclin A2): dominated |
| YKVKRRLVFGADD [MuHV-1 M97] | bind to members of all four families | – |

Now from value to sequence, other results behind:

| cyclin specificity in SIMBA [1] | Sequence | also measured |
| --- | --- | --- |
| bound cyclin B1 specifically | DDIVSKLVFDFVE [DBF4] | – |
| bound cyclin B1 specifically | HELFQRLDFDNDG [DNAH7] | – |
| bind to members of all four families | KAIRKLHFEDE [INSM1] | cyclin binding in the tiled library SIMBA screen [1]: cyclin D1-binding motif |
| bound preferentially to cyclin A2 | PPARRRLRLSVDE [CDT1] | – |
| bound preferentially to cyclin A2 | PRARKRLELGNLG [ORC1] | cyclin specificity in SIMBA ([1]; listed as ORC1 RxL): cyclin A-specific |
